Reference: ChEMBL document CHEMBL3217568, “trans-Stilbenoids: potent and selective inhibitors for human cytochrome P450 1B1” (Medchemcomm, 2011)

Key:
Cytochrome P450 1B1 [1] = biological target: T1, Cytochrome P450 1B1 (Homo sapiens, UniProt Q16678); assay: Inhibition of CYP1B1 (unknown origin)
T1 sequence (Q16678 whole entry): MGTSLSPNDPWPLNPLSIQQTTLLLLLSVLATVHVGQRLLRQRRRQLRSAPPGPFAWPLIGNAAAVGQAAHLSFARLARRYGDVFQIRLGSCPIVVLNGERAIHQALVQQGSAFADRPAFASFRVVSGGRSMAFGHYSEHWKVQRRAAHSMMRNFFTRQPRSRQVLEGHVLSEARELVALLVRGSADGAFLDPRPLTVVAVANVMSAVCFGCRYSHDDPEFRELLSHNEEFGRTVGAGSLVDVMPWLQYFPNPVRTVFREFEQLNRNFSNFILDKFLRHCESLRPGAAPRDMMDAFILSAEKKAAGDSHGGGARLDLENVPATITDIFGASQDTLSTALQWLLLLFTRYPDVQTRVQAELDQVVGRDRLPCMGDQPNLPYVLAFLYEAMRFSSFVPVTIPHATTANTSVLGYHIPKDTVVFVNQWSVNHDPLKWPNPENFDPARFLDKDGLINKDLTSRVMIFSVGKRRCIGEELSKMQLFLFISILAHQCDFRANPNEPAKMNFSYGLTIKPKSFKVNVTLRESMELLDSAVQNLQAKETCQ

Cytochrome P450 1A1 [2] = biological target: T2, Cytochrome P450 1A1 (Homo sapiens, UniProt P04798); assay: Inhibition of CYP1A1 (unknown origin); assay type: ADME
T2 sequence (P04798 whole entry): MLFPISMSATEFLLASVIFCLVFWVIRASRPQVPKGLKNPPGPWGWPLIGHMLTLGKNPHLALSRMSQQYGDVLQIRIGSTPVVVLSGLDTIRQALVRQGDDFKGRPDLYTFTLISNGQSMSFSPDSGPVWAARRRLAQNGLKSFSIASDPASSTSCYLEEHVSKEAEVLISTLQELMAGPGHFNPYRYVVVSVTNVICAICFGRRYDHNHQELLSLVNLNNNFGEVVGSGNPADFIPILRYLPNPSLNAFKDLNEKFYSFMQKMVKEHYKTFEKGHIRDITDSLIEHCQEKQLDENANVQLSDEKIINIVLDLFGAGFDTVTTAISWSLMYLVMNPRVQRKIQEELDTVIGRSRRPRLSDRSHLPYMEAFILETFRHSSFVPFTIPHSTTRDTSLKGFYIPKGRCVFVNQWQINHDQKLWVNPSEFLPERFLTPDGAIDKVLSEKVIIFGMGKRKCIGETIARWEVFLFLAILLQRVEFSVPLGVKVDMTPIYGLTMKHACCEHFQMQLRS

Cytochrome P450 1B1 [3] = biological target: T1, Cytochrome P450 1B1; assay: Inhibition of human CYP1B1 expressed in Escherichia coli assessed as changes in ethoxyresorufin O-deethylation activity after 3 mins by spectrofluorometer analysis
Cytochrome P450 1A2 = biological target: T3, Cytochrome P450 1A2 (Homo sapiens, UniProt P05177); assay: Inhibition of human CYP1A2 expressed in Escherichia coli assessed as changes in ethoxyresorufin O-deethylation activity after 3 mins by spectrofluorometer analysis; assay type: ADME
T3 sequence (P05177 whole entry): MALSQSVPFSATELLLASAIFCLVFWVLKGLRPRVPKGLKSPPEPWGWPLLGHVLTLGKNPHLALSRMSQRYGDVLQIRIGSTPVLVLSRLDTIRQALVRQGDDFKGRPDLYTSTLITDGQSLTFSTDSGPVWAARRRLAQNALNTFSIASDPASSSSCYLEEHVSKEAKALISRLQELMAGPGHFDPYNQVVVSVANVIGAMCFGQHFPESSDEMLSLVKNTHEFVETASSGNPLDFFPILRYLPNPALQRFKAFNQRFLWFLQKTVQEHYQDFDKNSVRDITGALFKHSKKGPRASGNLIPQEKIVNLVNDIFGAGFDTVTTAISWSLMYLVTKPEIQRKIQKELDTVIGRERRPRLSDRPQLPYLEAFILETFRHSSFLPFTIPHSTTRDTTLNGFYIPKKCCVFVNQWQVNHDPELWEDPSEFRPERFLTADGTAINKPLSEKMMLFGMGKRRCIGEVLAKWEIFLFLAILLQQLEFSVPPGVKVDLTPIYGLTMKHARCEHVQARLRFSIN

Cytochrome P450 1A1 [4] = biological target: T2, Cytochrome P450 1A1; assay: Inhibition of human CYP1A1 expressed in Escherichia coli assessed as changes in ethoxyresorufin O-deethylation activity after 3 mins by spectrofluorometer analysis; assay type: ADME
Homo sapiens [5] = species: Homo sapiens; assay: Selectivity ratio of IC50 for human CYP1A1 to IC50 for human CYP1B1
Homo sapiens [6] = species: Homo sapiens; assay: Selectivity ratio of IC50 for human CYP1A2 to IC50 for human CYP1B1

Row | SMILES | IC50 (Cytochrome P450 1B1 [3]) [nM] | IC50 (Cytochrome P450 1A2) [nM] | IC50 (Cytochrome P450 1A1 [4]) [nM] | Ki (Cytochrome P450 1B1 [1]) [nM] | Ki (Cytochrome P450 1A1 [2]) [nM] | Ratio IC50 (Homo sapiens [5]) | Ratio IC50 (Homo sapiens [6])
1 | COc1cc(/C=C/c2ccc(O)cc2)cc(OC)c1 [PTEROSTILBENE] | – | – | – | 900 | 570 | – | –
2 | COc1ccc(/C=C/c2ccccc2)c(OC)c1 | 25 | 326 | 493 | – | – | 20 | 13
3 | COc1cc(O)cc(/C=C/c2ccc(O)cc2)c1 | – | – | – | 900 | 120 | – | –
4 | COc1ccc(/C=C/c2cc(O)cc(O)c2)cc1 [RESVERATROL 4'-METHYL ETHER] | – | – | – | 2100 | 160 | – | –
5 | COc1ccc(/C=C/c2ccccc2OC)c(OC)c1 | 15.5 | 792 | 336 | – | – | 22 | 51
6 | COc1ccc(/C=C/c2cc(OC)c(OC)c(OC)c2)c(OC)c1 | 71 | 4690 | 301 | – | – | 4.2 | 66
7 | COc1ccc(/C=C/c2cccc(OC)c2OC)c(OC)c1 | 60.3 | 247 | 192 | – | – | 3.2 | 4.1
8 | COc1cccc(/C=C/c2ccc(OC)cc2OC)c1 | 15.2 | 903 | 98.2 | – | – | 6.5 | 59
9 | COc1ccc(/C=C/c2ccc(OC)cc2OC)cc1 | 57.5 | 1060 | 666 | – | – | 12 | 18
10 | COc1ccc(/C=C/c2ccc(OC)c(OC)c2)c(OC)c1 | 41.8 | 337 | 190 | – | – | 4.6 | 8.1

More lines, in order of falling IC50 (Cytochrome P450 1B1 [3]), values ahead:

Row | IC50 (Cytochrome P450 1B1 [3]) [nM] | IC50 (Cytochrome P450 1A2) [nM] | IC50 (Cytochrome P450 1A1 [4]) [nM] | SMILES | Ki (Cytochrome P450 1B1 [1]) [nM] | Ki (Cytochrome P450 1A1 [2]) [nM] | Ratio IC50 (Homo sapiens [5]) | Ratio IC50 (Homo sapiens [6])
11 | 8.81 | 204 | 222 | COc1ccc(/C=C/c2ccc(OC)cc2OC)c(OC)c1 | – | – | 25 | 23
12 | 5.46 | 236 | 78.4 | COc1ccc(/C=C/c2cc(OC)c(OC)cc2OC)c(OC)c1 | – | – | 14 | 43
13 | 4.93 | 188 | 148 | COc1ccc(/C=C/c2c(OC)cc(OC)cc2OC)c(OC)c1 | – | – | 30 | 38
14 | 3.51 | 302 | 350 | COc1ccc(OC)c(/C=C/c2ccc(OC)cc2OC)c1 | – | – | 100 | 86
15 | 3.3 | 1740 | 420 | COc1ccc(/C=C/c2c(OC)ccc(OC)c2OC)c(OC)c1 | – | – | 127 | 526
16 | 1.77 | 170 | 350 | COc1ccc(/C=C/c2c(OC)cccc2OC)c(OC)c1 | – | – | 194 | 95
